Measurements reported in patent US10570168B2, “2′ and/or 5′ amino-acid ester phosphoramidate 3′-deoxy adenosine derivatives as anti- cancer compounds” (NuCana plc, priority 2014, dated 2020).

What was measured:
Experiment in all cases: Solid tumour and haematological malignancy assay (CellTiterGlo)
Type in all cases: cell-based
[1] = system: HL-60; conditions: Homo sapiens, HL-60, 72 hr
Method in brief: (§1)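 Compound pre-warmed to 37° C in medium, added to cells in duplicate; incubated 3 days in CO2 incubator; viability measured with CellTiterGlo. DMSO final 0.5%.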

[2] = system: HepG2; conditions: Homo sapiens, HepG2, 72 hr
Method in brief: as §1

[3] = system: KG-1; conditions: Homo sapiens, KG-1, 72 hr
Method in brief: as §1

[4] = system: CCRFCEM; conditions: Homo sapiens, CCRF-CEM, 72 hr
Method in brief: as §1

[5] = system: HEL92.1.7; conditions: Homo sapiens, HEL.92.1.7, 72 hr
Method in brief: as §1

[6] = system: K562; conditions: Homo sapiens, K562, 72 hr
Method in brief: as §1

[7] = system: HT29; conditions: Homo sapiens, HT-29, HT29, 72 hr
Method in brief: as §1

[8] = system: MiaPaCa-2; conditions: Homo sapiens, MIA PaCa-2, Mia-Pa-Ca-2, 72 hr
Method in brief: as §1

[9] = system: MCF7; conditions: Homo sapiens, MCF7, MCF-7, 72 hr
Method in brief: as §1

[10] = system: RPMI-8226; conditions: Homo sapiens, RPMI-8226, 72 hr
Description: (§2) In vitro viability assay were performed to assess the effects of compounds on cell viability in selected cell lines over 72 hr using the CellTiterGlo (CTG, Promega-G7573) assay. The tests were performed in duplicates with treatment of compounds at 9 points, 3.16 folds titration in 96 well plates over ˜72 hr. The compound starting concentrations were […]. Cell viability assay using CellTiterGlo in 96-well plate were performed. Compound treatment 72 hrs, standard growth conditions, duplicates. Compounds were dissolved to 40 mM with thawed […]. Compounds were serially diluted at 3.16 fold in thawed DMSO, and warmed to 37° C. before being dissolved in media ([…]). After compounds were dissolved in media, media containing compounds were warmed to 37° C. in incubator and then compounds in media were added to cell plates ([…]) in duplicates. The compounds' final concentrations were from […] to 19.9 nM. All compound solubilities were checked and recorded again, then the plates were transferred to CO2 tissue culture incubator immediately and incubated for 3 days. DMSO final concentration is 0.5%.

[11] = system: NCI-H929; conditions: Homo sapiens, NCI-H929, 72 hr
Description: as §2

[12] = system: Z138; conditions: Homo sapiens, Z-138, 72 hr
Description: as §2

[13] = system: MOLT-4; conditions: Homo sapiens, MOLT-4, 72 hr
Description: as §2

[14] = system: THP-1; conditions: Homo sapiens, THP-1, 72 hr
Description: as §2

[15] = system: BxPC-3-Luc; conditions: BxPC-3-Luc, 72 hr; read-out: EC50 (absolute EC50)
Description: as §2

[16] = system: RL; conditions: Homo sapiens, 72 hr
Description: as §2

[17] = system: HS445; conditions: Hs 445, HS445, 72 hr
Description: as §2

[18] = system: MV4-11; conditions: Homo sapiens, MV4-11, 72 hr
Description: as §2

[19] = system: SW620; conditions: Homo sapiens, SW-620, SW620, 72 hr
Description: as §2

Structure (SMILES): Nc1nc(Cl)nc2c1ncn2[C@@H]1O[C@H](CO)C[C@H]1O [2-Cl-cordycepin, 3′-deoxy-2-chloroadenosine, reference compound]
- Emax ([1]; Table VII, read-out: MI %): 84.4%
- EC50 ([1]; read-out: EC50 (absolute EC50)): 15 to 100 µM
- Emax ([2]; Table VII, read-out: MI %): 31.1%
- EC50 ([2]; read-out: EC50 (absolute EC50)): > 100 µM
- Emax ([3]; Table VII, read-out: MI %): 4.3%
- EC50 ([3]; read-out: EC50 (absolute EC50)): > 100 µM
- Emax ([4]; Table VII, read-out: MI %): 98.1%
- EC50 ([4]; read-out: EC50 (absolute EC50)): 15 to 100 µM
- Emax ([5]; Table VII, read-out: MI %): 94.3%
- EC50 ([5]; read-out: EC50 (absolute EC50)): 5 to 15 µM
- Emax ([6]; Table VII, read-out: MI %): 37.6%
- EC50 ([6]; read-out: EC50 (absolute EC50)): > 100 µM
- Emax ([7]; Table VII, read-out: MI %): 4.4%
- EC50 ([7]; read-out: EC50 (absolute EC50)): > 100 µM
- Emax ([8]; Table VII, read-out: MI %): 17.7%
- EC50 ([8]; read-out: EC50 (absolute EC50)): > 100 µM
- Emax ([9]; Table VII, read-out: MI %): -0.9%
- EC50 ([9]; read-out: EC50 (absolute EC50)): > 100 µM
- Emax ([10]; Table VII, read-out: MI %): 29%
- EC50 ([10]; read-out: EC50 (absolute EC50)): > 100 µM
- Emax ([11]; Table VII, read-out: MI %): 93.6%
- EC50 ([11]; read-out: EC50 (absolute EC50)): 5 to 15 µM
- Emax ([12]; Table VII, read-out: MI %): 99.5%
- EC50 ([12]; read-out: EC50 (absolute EC50)): 15 to 100 µM
- Emax ([13]; Table VII, read-out: MI %): 80.4%
- EC50 ([13]; read-out: EC50 (absolute EC50)): > 100 µM
- Emax ([14]; Table VII, read-out: MI %): 24.1%
- EC50 ([14]; read-out: EC50 (absolute EC50)): > 100 µM
- EC50 [15]: > 100 µM
- Emax ([16]; Table VII, read-out: MI %): 84.1%
- EC50 ([16]; read-out: EC50 (absolute EC50)): 15 to 100 µM
- Emax ([17]; Table VII, read-out: MI %): -1.9%
- EC50 ([17]; read-out: EC50 (absolute EC50)): > 100 µM
- Emax ([18]; Table VII, read-out: MI %): 100%
- EC50 ([18]; read-out: EC50 (absolute EC50)): 15 to 100 µM
- Emax ([19]; Table VII, read-out: MI %): 36.3%
- EC50 ([19]; read-out: EC50 (absolute EC50)): > 100 µM
